Tests used:
[1] = system: MS-1 (MCV-positive) and UISO (MCV-negative) cell xenografts; assay: MS-1 and UISO xenograft drug treatment; assay type: in vivo, NSG mice; details: end of three week treatment period; MS-1 and UISO xenografts
Description: (§1) MCC cells were checked for viability >90% by trypan blue staining, resuspended in PBS (2×10^7 cells in 100 μl) and inoculated subcutaneously into the right flank of mice.
(§2) All treatments were delivered for three consecutive weeks. […] YM-155 (2 mg/kg) was given intraperitoneally on five consecutive days, followed by a two-day treatment free interval.

[2] = system: survivin; assay: qRT-PCR for survivin in xenograft tumor tissues; assay type: in vivo, mice; details: 2 mg/kg vs saline
Description: Column represents mean and error bars represent standard deviation. Experiment was done in triplicate (Mean±SEM).
RNA was extracted from cell lysates using Trizol reagent (Invitrogen) and cDNA was synthesized using SuperScript III First Strand Synthesis (Invitrogen). Quantitative real-time PCR for survivin was performed on cDNA using the SYBR green method (based on manufacturer's protocol, Applied Biosystems). […] The relative change in expression was calculated using the Pffal method (Pfaffl, A new mathematical model for relative quantification in real-time RT-PCR. Nucleic Acids Research 29, e45 (May 1, 2001)). Experiments were repeated six times (2 biological repeats with 3 technical replicates each).

[3] = system: human MKL-1 MCC xenografts
Description: Compounds were dissolved in sterile 0.9% saline solution for administration to animals.
Six-week-old female triple immune-deficient NSG (Nod-SCID gamma) mice (Jackson Laboratory) were maintained in a specific pathogen-free environment.
as §1, §2
Two-tailed paired Student's t test was used to analyze statistical differences in qRT-PCR results. Mouse survival curves were estimated using the Kaplan-Meier product-limit method and were compared using the log-rank test (GraphPad Software, La Jolla, Calif.). A piecewise linear hierarchical Bayesian model (Zhao et al., Bayesian hierarchical changepoint methods in modeling the tumor growth profiles in xenograft experiments. Clinical Cancer Res 17, 1057 (Mar. 1, 2011)) was used to characterize differences in tumor volumes and growth between treatments.
Cells of Merkel cell polyomavirus (+) carcinoma cell lines MKL-1, MS-1, WaGa, and MKL-2 were checked for viability >90% by trypan blue staining, resuspended in PBS (2×10^7 cells in 100 μl) and inoculated subcutaneously into the right flank of mice.
YM-155 was given intraperitoneally on five consecutive days, followed by a two-day treatment free interval. For YM155 this treatment continued for three weeks or until mice were euthanized. Mice were euthanized upon showing a tumor having a diameter of 20 mm, or upon a showing of significant distress (>20% weight loss or when they became moribund). Caliper measurements of the longest perpendicular tumor diameters were performed every other day and tumor volumes were calculated using the formula: (width)^2×(length/2). Survival was defined as time from the first day of treatment until death/sacrifice.

[4] = system: MCV-negative MCC cell line; assay: Cell-Titer Glo growth inhibition by YM155; assay type: cell-based, human; details: MCV-negative vs MCV-positive MCC cells
Description: Serial drug dilutions from 10^−4 M to 10^−9 M were used on MCC and non-MCC cell lines. Cells were seeded into 384-well plates at 6000 cells in 50 μl of medium per well. After 24 hours, 25 μl of 3× drugs were added at increasing concentration to each well. Cell viability was then measured using Cell Titer Glo (Promega) kit following manufacturer's instructions as described previously. Each drug concentration was tested in triplicate for each cell line and experiments were repeated twice. EC50 doses for the drugs were calculated using a four parameter logistic equation (GraphPad Prism).

[5] = three weeks treatment, bortezomib 1 mg/kg twice weekly, YM155 2 mg/kg 5 times weekly

Q: How did the “final tumor volumes, % (median) of saline-treated control mice” value [1] turn out when `COCCn1c2c([n+](Cc3cnccn3)c1C)C(=O)c1ccccc1C2=O.[Br-]` [YM155, 1-(2-methoxyethyl)-2-methyl-4,9-dioxo-3-(pyrazin-2-ylmethyl)-4,9-dihydro-1H-naphtho[2,3-d]imidazol-3-ium bromide] was run?
A: The value was 43-55%.

Q: And the “survivin levels in xenograft tumors (qRT-PCR)” value [2]?
A: Its value is “Lower survivin levels”.

Q: And the “survival after initiation of treatment” value ([3]; Example 2, 2 mg/kg for three weeks)?
A: The value was “almost two months”.

Q: What about the “survival after treatment began” value ([3]; Example 2, continuously at 4 mg/kg) of the same compound?
A: The value was “more than three months”.

Q: What about the “tumor growth after treatment was stopped” value ([3]; after single 3-week course, 2 mg/kg) of the same compound?
A: The value was “all tumors resumed growth once YM155 was stopped”.

Q: And the “tolerability / adverse effects in mice” value ([3]; bortezomib 1 mg/kg twice weekly, YM155 2 mg/kg 5 times weekly)?
A: The value was “well-tolerated and no adverse effects or acute toxicities were noted”.

Q: And the “mice dying during treatment (up to day 19)” value [3, 5]?
A: Its value is “none”.

Q: And the “xenograft tumor growth / progression during treatment” value [3, 5]?
A: The value was “markedly delayed MKL-1 xenograft growth”.

Q: And the “concentrations inhibiting MCV-negative MCC cell line growth, higher than for MCV-positive MCC cells” value [4]?
A: Its value is 1-2 orders of magnitude.
